How the values were obtained:
Assay type in all cases: binding
[1] = target: T1, FZD2 (Homo sapiens, UniProt Q14332); assay: NanoBRET screen HiBiT-FZD2 in HEK293
T1 construct: purchased Promega (in-house HiBiT-GPCR construct library, NanoBRET)
Experimental: (§1) Each tracer candidate was screened across the entire library of HiBiT-GPCR constructs using NanoBRET as the detection modality. As depicted in Figure 4A, the specificity of interactions was evaluated through decrease in BRET due to competitive displacement of a bound tracer by excess parental compound. Each tracer was analyzed for binding to each HiBiT-GPCR fusion in the absence and in the presence of competing parental compound. Briefly, HEK293 cells were transfected with HiBiT-GPCR constructs diluted into promoterless DNA to reduce expression and maximize translocation to the cell surface. Each tracer candidate was then screened at concentrations of 1 μM and 0.1 μM across cells expressing these fusions. Cells were treated for 1.5 h with tracer either alone or in the presence of 20 μM competing parental compound (i.e., control). BRET was measured upon addition of purified LgBiT and subsequent complementation with HiBiT genetically fused to a GPCR. The specificity of interactions was assessed through a decrease in BRET signal due to competitive displacement of the bound tracer. To further gauge the robustness of these interactions, the fold response over the control (i.e., BRETtracer/BRETcontrol) was calculated. We chose a 1.5-fold response, which translates to ≥7-fold signal over noise as the minimal threshold required to score an interaction as positive. […]. Below we highlight the screening results obtained for our exemplary fluorescent tracers based on Clozapine, Amitriptyline and AZD1283.
(§2) HiBiT-GPCR DNA constructs were diluted in 10 mM Tris pH 8 to a final concentration of 0.01 μg/μL, arrayed in 96-well plates and stored at −20 °C. For transfection, HEK293 cells were suspended in Opti-MEM (without phenol red) supplemented with 2% fetal bovine serum (Seradigm) and 100 units/mL penicillin–streptomycin (Gibco) at a final concentration of 220,000 cells/mL and dispensed into white 96-well plates at 90 μL/well. Subsequent transfections and screens were carried using an Agilent Bravo Automated Liquid Handling Platform. First, the 96-well HiBiT DNA arrays were diluted 25-fold in Opti-MEM (without serum or phenol red) to a final concentration of 0.0004 μg/μL and 20 μL of the diluted DNAs were transferred into new 96-well plates. Next, promoterless carrier DNA (1 μg/μL) was diluted 25-fold (0.04 μg/μL) and then dispensed into the diluted arrays at 20 μL/well. Following brief mixing, Viafect transfection reagent (Promega) diluted 16-fold into Opti-MEM was dispensed into the plates at 40 μL/well. After mixing by pipetting, plates were incubated for 10 min on the pipetting station deck. The DNA-transfection reagent complexes were then added to plates containing cells. To facilitate the screen, 10 μL of DNA-transfection reagent complexes were added in duplicates to the top 4 and bottom 4 rows, resulting in two identical 48-well arrays per plate. Plates with transfected cells were incubated for 18–20 h at 37 °C/5% CO2. A screen of each tracer across the entire library using two different concentrations requires duplicate plates of transfected cells. Depending on the number of tracers being screened, transfections can be scaled up using the same ratios. The next day, for each tracer, four 20× screening solutions in tracer dilution buffer (Promega) were prepared: two duplicates at final concentration of 20 μM and two duplicates at a final concentration of 2 μM. A competing unmodified compound was added to one of each duplicate at a final concentration of 400 μM. The four resulting solutions were diluted 4-fold in Opti-MEM without serum or phenol red to generate 5× solutions (5 µM and 0.5 µM tracer +/− 100 μM competing compound). To screen the library, a BioTek MultiFlo FX liquid dispenser was used to dispense 22.5 µL of tracer solution to the top 4 rows and 22.5 µL tracer + competing compound solution to the 4 bottom rows. Plates were briefly mixed on an orbital shaker and incubated for 1.5 h at room temperature. […]

[2] = target: T2, GABBR1 (Homo sapiens, UniProt Q9UBS5); assay: NanoBRET screen HiBiT-GABBR1 in HEK293
T2 construct: purchased Promega (in-house HiBiT-GPCR construct library, NanoBRET)
T2 sequence (Q9UBS5 15-961 limits assumed): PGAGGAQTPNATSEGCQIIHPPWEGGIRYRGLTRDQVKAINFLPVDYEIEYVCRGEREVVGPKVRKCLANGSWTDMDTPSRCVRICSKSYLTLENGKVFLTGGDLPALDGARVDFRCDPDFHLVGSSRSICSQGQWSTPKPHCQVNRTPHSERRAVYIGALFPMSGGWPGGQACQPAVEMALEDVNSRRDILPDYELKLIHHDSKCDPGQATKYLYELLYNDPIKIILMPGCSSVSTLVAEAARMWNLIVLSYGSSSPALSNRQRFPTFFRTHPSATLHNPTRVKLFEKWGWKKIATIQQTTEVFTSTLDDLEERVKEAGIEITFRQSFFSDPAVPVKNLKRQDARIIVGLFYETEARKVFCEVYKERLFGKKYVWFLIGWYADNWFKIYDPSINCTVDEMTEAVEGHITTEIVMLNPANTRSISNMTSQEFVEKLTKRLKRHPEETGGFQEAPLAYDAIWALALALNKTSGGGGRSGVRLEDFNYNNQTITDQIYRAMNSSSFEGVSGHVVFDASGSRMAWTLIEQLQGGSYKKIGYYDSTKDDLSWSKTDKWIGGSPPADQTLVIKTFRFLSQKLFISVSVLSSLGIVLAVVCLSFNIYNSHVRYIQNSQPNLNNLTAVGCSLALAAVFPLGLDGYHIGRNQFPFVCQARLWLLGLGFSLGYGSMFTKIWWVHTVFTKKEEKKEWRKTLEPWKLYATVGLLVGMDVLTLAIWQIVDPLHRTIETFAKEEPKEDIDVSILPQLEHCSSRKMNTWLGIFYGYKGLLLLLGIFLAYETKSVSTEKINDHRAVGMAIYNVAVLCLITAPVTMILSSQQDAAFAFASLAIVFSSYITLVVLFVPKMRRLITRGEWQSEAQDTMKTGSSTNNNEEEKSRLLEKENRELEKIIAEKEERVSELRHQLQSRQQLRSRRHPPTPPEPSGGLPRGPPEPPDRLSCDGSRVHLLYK
Experimental: as §1, §2

[3] = target: T3, HTR5A (Homo sapiens, UniProt P47898); assay: NanoBRET screen HiBiT-HTR5A in HEK293
T3 construct: purchased Promega (in-house HiBiT-GPCR construct library, NanoBRET)
T3 sequence (P47898 whole entry): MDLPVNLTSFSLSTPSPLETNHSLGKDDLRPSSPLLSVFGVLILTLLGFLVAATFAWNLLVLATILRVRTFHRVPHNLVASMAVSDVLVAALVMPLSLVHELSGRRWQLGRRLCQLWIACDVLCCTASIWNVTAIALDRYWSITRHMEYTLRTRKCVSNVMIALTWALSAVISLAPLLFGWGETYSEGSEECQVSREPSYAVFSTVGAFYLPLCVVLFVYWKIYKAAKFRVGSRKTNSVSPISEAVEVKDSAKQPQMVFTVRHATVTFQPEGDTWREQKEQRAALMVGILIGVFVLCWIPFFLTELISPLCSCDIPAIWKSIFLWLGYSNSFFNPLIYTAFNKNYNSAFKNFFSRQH
Experimental: as §1, §2

[4] = target: T4, LGR6 (Homo sapiens, UniProt Q9HBX8); assay: NanoBRET screen HiBiT-LGR6 in HEK293
T4 construct: purchased Promega (in-house HiBiT-GPCR construct library, NanoBRET)
T4 sequence (Q9HBX8 25-967): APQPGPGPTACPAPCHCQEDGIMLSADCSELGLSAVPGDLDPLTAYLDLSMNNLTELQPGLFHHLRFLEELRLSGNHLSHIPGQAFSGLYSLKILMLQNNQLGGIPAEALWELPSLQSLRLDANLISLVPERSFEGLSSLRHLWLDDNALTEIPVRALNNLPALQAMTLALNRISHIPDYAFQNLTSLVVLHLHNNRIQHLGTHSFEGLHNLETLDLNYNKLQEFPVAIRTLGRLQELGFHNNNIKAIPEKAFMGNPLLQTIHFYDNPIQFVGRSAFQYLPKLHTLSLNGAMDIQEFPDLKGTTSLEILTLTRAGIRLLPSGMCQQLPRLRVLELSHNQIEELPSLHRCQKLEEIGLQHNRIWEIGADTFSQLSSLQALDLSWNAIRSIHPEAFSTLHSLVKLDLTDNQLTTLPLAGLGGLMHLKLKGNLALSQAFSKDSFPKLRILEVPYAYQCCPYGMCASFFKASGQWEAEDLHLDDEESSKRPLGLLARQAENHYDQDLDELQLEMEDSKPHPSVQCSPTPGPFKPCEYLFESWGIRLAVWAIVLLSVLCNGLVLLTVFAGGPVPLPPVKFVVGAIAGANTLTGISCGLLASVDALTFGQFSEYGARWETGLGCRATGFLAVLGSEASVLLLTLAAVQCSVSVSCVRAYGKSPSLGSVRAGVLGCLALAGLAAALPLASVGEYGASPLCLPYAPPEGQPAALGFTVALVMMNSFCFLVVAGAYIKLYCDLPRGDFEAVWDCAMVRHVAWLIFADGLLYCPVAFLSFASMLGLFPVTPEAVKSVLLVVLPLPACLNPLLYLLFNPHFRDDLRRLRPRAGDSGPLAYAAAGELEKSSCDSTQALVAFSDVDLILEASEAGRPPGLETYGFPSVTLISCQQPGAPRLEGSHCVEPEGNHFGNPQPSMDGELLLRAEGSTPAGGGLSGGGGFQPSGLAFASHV
Experimental: as §1, §2

[5] = target: T5, P2RY10 (Homo sapiens, UniProt O00398); assay: NanoBRET screen HiBiT-P2RY10 in HEK293
T5 construct: purchased Promega (in-house HiBiT-GPCR construct library, NanoBRET)
T5 sequence (O00398 whole entry, one chain of several): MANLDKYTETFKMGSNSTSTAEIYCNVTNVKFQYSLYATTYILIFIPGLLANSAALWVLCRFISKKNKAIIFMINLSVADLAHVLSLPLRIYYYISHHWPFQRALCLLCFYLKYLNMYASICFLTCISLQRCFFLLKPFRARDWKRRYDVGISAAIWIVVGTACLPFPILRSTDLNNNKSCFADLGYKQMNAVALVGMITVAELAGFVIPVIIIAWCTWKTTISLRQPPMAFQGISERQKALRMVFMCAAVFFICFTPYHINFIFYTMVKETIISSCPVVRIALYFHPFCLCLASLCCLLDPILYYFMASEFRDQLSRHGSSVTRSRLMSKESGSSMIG
Experimental: as §1, §2

[6] = target: T6, P2RY12 (Homo sapiens, UniProt Q9H244); assay: NanoBRET screen HiBiT-P2RY12 in HEK293
T6 construct: purchased Promega (in-house HiBiT-GPCR construct library, NanoBRET)
T6 sequence (Q9H244 whole entry, one chain of several): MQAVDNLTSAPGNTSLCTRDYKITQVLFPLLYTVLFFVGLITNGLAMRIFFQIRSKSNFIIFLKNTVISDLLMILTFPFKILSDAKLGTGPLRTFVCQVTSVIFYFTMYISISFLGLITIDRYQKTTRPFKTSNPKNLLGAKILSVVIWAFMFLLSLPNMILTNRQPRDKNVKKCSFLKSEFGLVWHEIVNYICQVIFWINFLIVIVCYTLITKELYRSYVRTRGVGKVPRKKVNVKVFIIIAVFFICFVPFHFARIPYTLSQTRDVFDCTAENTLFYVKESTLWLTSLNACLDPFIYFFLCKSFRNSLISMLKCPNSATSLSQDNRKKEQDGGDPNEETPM
Experimental: as §1, §2

[7] = target: T7, MCHR1 (Homo sapiens, UniProt Q99705); assay: NanoBRET screen HiBiT-MCHR1 in HEK293
T7 construct: purchased Promega (in-house HiBiT-GPCR construct library, NanoBRET)
T7 sequence (Q99705 whole entry): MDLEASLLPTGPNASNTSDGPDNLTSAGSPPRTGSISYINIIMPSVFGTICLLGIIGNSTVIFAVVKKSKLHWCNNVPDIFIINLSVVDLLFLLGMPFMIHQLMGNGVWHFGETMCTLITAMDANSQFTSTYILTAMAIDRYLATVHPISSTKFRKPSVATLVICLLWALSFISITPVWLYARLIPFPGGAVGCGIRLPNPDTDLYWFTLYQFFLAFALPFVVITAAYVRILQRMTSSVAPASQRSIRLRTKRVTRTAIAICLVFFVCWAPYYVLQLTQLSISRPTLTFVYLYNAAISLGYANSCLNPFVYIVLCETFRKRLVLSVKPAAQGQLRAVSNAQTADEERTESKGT
Experimental: as §1, §2

[8] = target: T8, GRM1 (Homo sapiens, UniProt Q13255); assay: NanoBRET screen HiBiT-GRM1 in HEK293
T8 construct: purchased Promega (in-house HiBiT-GPCR construct library, NanoBRET)
T8 sequence (Q13255 19-1194): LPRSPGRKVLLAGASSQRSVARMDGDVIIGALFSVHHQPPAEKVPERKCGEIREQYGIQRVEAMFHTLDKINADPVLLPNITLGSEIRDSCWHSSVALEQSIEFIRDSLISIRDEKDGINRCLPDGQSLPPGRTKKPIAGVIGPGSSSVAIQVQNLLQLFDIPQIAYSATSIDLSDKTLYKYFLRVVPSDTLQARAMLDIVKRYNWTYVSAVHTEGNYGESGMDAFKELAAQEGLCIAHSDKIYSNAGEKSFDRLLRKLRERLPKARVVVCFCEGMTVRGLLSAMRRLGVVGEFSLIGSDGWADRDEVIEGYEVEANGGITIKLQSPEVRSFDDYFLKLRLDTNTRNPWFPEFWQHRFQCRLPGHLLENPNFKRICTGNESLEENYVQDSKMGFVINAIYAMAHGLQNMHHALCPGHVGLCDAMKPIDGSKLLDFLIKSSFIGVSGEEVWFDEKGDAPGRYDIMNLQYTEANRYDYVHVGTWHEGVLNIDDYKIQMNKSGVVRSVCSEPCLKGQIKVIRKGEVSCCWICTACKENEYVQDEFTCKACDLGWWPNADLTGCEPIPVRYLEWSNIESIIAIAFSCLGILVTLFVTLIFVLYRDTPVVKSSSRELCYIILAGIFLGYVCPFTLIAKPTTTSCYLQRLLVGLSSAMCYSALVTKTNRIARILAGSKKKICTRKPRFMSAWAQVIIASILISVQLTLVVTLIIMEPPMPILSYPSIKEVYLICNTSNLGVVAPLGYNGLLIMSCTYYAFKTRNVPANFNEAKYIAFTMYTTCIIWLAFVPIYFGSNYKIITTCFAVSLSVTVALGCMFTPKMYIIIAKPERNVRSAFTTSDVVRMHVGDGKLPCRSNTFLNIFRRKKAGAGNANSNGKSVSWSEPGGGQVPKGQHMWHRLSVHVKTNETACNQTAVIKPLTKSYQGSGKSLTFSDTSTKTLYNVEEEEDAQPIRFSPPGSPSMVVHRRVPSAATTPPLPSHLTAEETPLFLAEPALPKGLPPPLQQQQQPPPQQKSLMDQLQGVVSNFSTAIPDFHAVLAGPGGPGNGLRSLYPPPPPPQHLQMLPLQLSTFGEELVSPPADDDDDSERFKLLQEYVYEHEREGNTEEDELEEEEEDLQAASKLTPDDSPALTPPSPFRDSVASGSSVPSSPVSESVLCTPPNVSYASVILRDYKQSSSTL
Experimental: as §1, §2

T1 sequence (Q14332 24-565): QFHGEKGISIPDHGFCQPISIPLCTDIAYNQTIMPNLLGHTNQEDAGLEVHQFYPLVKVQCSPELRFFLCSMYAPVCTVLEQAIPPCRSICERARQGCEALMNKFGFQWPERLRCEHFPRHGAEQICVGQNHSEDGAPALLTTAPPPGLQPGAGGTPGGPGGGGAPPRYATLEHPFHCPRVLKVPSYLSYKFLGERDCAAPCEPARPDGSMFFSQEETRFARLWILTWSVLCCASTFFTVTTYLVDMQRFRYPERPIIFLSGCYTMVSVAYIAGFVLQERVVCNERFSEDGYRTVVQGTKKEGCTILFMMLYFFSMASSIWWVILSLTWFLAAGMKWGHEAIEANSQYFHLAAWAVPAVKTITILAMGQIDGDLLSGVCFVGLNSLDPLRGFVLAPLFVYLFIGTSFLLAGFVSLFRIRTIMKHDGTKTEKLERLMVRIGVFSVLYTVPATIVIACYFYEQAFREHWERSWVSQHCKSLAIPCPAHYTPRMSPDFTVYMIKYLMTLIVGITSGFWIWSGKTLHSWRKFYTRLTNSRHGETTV

Row | Structure (SMILES) | NanoBRET Fold Response ([1]; FZD2, 0.1μM tracer) | NanoBRET Fold Response ([1]; FZD2, 1μM tracer) | NanoBRET Fold Response ([2]; GABBR1, 0.1μM tracer) | NanoBRET Fold Response ([2]; GABBR1, 1μM tracer) | NanoBRET Fold Response ([3]; HTR5A, 0.1μM tracer) | NanoBRET Fold Response ([3]; HTR5A, 1μM tracer) | NanoBRET Fold Response ([4]; LGR6, 0.1μM tracer) | NanoBRET Fold Response ([4]; LGR6, 1μM tracer) | NanoBRET Fold Response ([5]; P2RY10, 0.1μM tracer) | NanoBRET Fold Response ([5]; P2RY10, 1μM tracer) | NanoBRET Fold Response ([6]; P2RY12, 0.1μM tracer) | NanoBRET Fold Response ([6]; P2RY12, 1μM tracer) | NanoBRET Fold Response ([7]; MCHR1, 0.1μM tracer) | NanoBRET Fold Response ([7]; MCHR1, 1μM tracer) | NanoBRET Fold Response ([8]; GRM1, 0.1μM tracer) | NanoBRET Fold Response ([8]; GRM1, 1μM tracer) | NanoBRET Fold Response ([1]; FZD2, tracer 0.1μM) | NanoBRET Fold Response ([1]; FZD2, tracer 1μM) | NanoBRET Fold Response ([2]; GABBR1, tracer 0.1μM) | NanoBRET Fold Response ([2]; GABBR1, tracer 1μM) | further results
1 | COc1ccc2[nH]c(-c3ccc(CNC(=O)CCOCCOCCOCCOCCNC(=O)CCc4ccc5n4[B-](F)(F)[N+]4=C(c6ccc[nH]6)C=CC4=C5)cc3)c(CCNC(C)=O)c2n1 [AzomelatoninICO9-2-NB590] |  |  |  |  |  |  |  |  |  |  |  |  |  |  |  |  |  |  |  |  | NanoBRET Fold Response ([1]; 0.1μM tracer): 0.99; NanoBRET Fold Response ([1]; 1μM tracer): 1.11; NanoBRET Fold Response ([2]; 0.1μM tracer): 0.66; NanoBRET Fold Response ([2]; 1μM tracer): 0.57; NanoBRET Fold Response ([3]; 0.1μM tracer): 1.02; NanoBRET Fold Response ([3]; 1μM tracer): 0.84; NanoBRET Fold Response ([4]; 0.1μM tracer): 0.62; NanoBRET Fold Response ([4]; 1μM tracer): 0.95; NanoBRET Fold Response ([5]; 0.1μM tracer): 0.88; NanoBRET Fold Response ([5]; 1μM tracer): 1.15; NanoBRET Fold Response ([6]; 0.1μM tracer): 1.15; NanoBRET Fold Response ([6]; 1μM tracer): 1.05; NanoBRET Fold Response ([7]; 0.1μM tracer): 1.38; NanoBRET Fold Response ([7]; 1μM tracer): 0.88; NanoBRET Fold Response ([8]; 0.1μM tracer): 0.66; NanoBRET Fold Response ([8]; 1μM tracer): 1.33
2 | O=C(CCOCCOCCOCCOCCNC(=O)CCc1ccc2n1[B-](F)(F)[N+]1=C(c3ccc[nH]3)C=CC1=C2)NCCCN1CCN(C2=Nc3cc(Cl)ccc3Nc3ccccc32)CC1 [Clozapine-a-2-NB590] | 1.04 | 1.02 | 0.96 | 1.33 | 1.11 | 1.29 | 1.03 | 0.66 | 1.18 | 1.33 | 1.00 | 0.94 | 0.87 | 1.26 | 1.42 | 0.90 |  |  |  |  | 
3 | CN1CCN(C2=Nc3cc(Cl)ccc3Nc3ccc(CNC(=O)CCOCCOCCOCCOCCNC(=O)CCc4ccc5n4[B-](F)(F)[N+]4=C(c6ccc[nH]6)C=CC4=C5)cc32)CC1 [Clozapine-b-2-NB590] | 1.01 | 1.11 | 0.93 | 1.38 | 1.07 | 1.35 | 1.31 | 0.89 | 0.96 | 1.15 | 1.00 | 0.97 | 0.96 | 1.00 | 1.05 | 0.74 |  |  |  |  | 
4 | CN1CCN(C2=Nc3cc(Cl)ccc3N(CC(=O)NCCOCCOCCOCCOCCNC(=O)CCc3ccc4n3[B-](F)(F)[N+]3=C(c5ccc[nH]5)C=CC3=C4)c3ccccc32)CC1 [Clozapine-c-2-NB590] | 1.01 | 0.90 | 0.97 | 0.89 | 1.02 | 1.00 | 0.89 | 0.91 | 1.06 | 0.98 | 0.99 | 0.95 | 1.00 | 0.93 | 0.99 | 1.00 |  |  |  |  | 
5 | O=C(CCOCCOCCOCCOCCNC(=O)CCc1ccc2n1[B-](F)(F)[N+]1=C(c3ccc[nH]3)C=CC1=C2)NCCCN1CCN(C2=Nc3ccccc3Oc3ccc(Cl)cc32)CC1 [Loxapine-a-2-NB590] |  |  |  |  |  |  |  |  |  |  |  |  |  |  |  |  | 1.07 | 1.05 | 1.03 | 0.92 | NanoBRET Fold Response ([3]; HTR5A, tracer 0.1μM): 0.97; NanoBRET Fold Response ([3]; HTR5A, tracer 1μM): 1.32; NanoBRET Fold Response ([4]; LGR6, tracer 0.1μM): 0.91; NanoBRET Fold Response ([4]; LGR6, tracer 1μM): 1.25; NanoBRET Fold Response ([5]; P2RY10, tracer 0.1μM): 1.14; NanoBRET Fold Response ([5]; P2RY10, tracer 1μM): 0.98; NanoBRET Fold Response ([6]; P2RY12, tracer 0.1μM): 0.99; NanoBRET Fold Response ([6]; P2RY12, tracer 1μM): 0.84; NanoBRET Fold Response ([7]; MCHR1, tracer 0.1μM): 1.03; NanoBRET Fold Response ([7]; MCHR1, tracer 1μM): 1.20; NanoBRET Fold Response ([8]; GRM1, tracer 0.1μM): 0.93; NanoBRET Fold Response ([8]; GRM1, tracer 1μM): 0.59
6 | COc1ccccc1N1CCN(CCCCN2C(=O)c3ccc(CNC(=O)CCOCCNC(=O)c4ccc(CNC(=O)CCc5ccc6n5[B-](F)(F)[N+]5=C(c7ccc[nH]7)C=CC5=C6)cc4)cc3C2=O)CC1 [NAN-190-3-NB590] |  |  |  |  |  |  |  |  |  |  |  |  |  |  |  |  | 0.88 | 1.44 | 0.80 | 1.07 | NanoBRET Fold Response ([3]; HTR5A, tracer 0.1μM): 0.99; NanoBRET Fold Response ([3]; HTR5A, tracer 1μM): 1.06; NanoBRET Fold Response ([4]; LGR6, tracer 0.1μM): 1.39; NanoBRET Fold Response ([4]; LGR6, tracer 1μM): 0.60; NanoBRET Fold Response ([5]; P2RY10, tracer 0.1μM): 1.23; NanoBRET Fold Response ([5]; P2RY10, tracer 1μM): 1.08; NanoBRET Fold Response ([6]; P2RY12, tracer 0.1μM): 1.12; NanoBRET Fold Response ([6]; P2RY12, tracer 1μM): 1.10; NanoBRET Fold Response ([7]; MCHR1, tracer 0.1μM): 1.20; NanoBRET Fold Response ([7]; MCHR1, tracer 1μM): 0.86; NanoBRET Fold Response ([8]; GRM1, tracer 0.1μM): 1.03; NanoBRET Fold Response ([8]; GRM1, tracer 1μM): 1.12

— publication PMC8151276, “An Integrated Approach toward NanoBRET Tracers for Analysis of GPCR Ligand Engagement” (Molecules, 2021)
